In patent publication US20080114007A1 (priority 2006, published 2008):

These compounds were tested against CSF-1R (Homo sapiens, UniProt P07333) (assay: Peptide (non-phosphorylated) assay, fluorescence polarization competition immunoassay). Settings: 0.7 nM CSF-1R, 308 μM SYEGNSYTFIDPTQ peptide, 1 mM ATP, 80 min; mean of at least three determinations; read-out: c-fms Peptide IC50.
Assay type: biochemical
Outline: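 Human CSF-1R kinase reaction started with ATP and run 80 min at room temperature, then stopped with EDTA. Phosphopeptide detected by fluorescence polarization competition using anti-phosphotyrosine antibody and PTK green tracer after 30 min. Controls used 4% DMSO, with EDTA added before reaction start for positive controls.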

CSF-1R, sequence (P07333 20-972): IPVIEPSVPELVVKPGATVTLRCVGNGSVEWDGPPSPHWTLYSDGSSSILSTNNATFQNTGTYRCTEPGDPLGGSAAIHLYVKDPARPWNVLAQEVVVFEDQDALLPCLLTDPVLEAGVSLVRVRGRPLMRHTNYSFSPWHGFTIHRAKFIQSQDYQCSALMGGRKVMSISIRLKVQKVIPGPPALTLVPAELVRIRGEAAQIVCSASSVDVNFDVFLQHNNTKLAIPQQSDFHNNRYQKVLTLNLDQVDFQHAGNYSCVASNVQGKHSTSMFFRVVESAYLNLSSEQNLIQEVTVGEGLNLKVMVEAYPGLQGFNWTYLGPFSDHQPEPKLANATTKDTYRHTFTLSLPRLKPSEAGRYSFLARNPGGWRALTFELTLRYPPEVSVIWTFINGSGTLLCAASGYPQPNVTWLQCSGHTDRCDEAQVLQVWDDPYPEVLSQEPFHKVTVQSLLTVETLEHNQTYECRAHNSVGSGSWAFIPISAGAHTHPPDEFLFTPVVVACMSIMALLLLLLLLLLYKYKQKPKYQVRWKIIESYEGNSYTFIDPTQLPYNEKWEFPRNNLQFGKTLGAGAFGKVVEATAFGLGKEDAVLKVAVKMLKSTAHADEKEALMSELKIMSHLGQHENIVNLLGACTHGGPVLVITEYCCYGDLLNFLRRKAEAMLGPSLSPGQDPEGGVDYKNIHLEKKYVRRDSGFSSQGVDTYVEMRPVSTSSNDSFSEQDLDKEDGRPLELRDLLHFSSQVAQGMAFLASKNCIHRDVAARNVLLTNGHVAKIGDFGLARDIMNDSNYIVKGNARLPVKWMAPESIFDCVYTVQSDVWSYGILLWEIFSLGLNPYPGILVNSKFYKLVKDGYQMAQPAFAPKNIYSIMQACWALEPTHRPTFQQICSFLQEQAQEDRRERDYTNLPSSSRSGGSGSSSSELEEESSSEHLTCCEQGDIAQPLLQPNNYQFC

| Structure (SMILES) | IC50 [nM] |
| --- | --- |
| NC(=O)c1cn(-c2ccc3c(c2)CCC3)c2nc(Nc3cccc(C(=O)N4CCOCC4)c3)ncc2c1=O [Cpd 120, 8-indan-5-yl-2-[3-(morpholine-4-carbonyl)-phenylamino]-5-oxo-5,8-dihydro-pyrido[2,3-d]pyrimidine-6-carboxylic acid amide] | 17 |
| CONC(=O)c1cn(-c2ccc3c(c2)CCC3)c2nc(Nc3cccc(C4CCN(C)CC4)c3)ncc2c1=O [Cpd 273, 8-indan-5-yl-2-[3-(1-methyl-piperidin-4-yl)-phenylamino]-5-oxo-5,8-dihydro-pyrido[2,3-d]pyrimidine-6-carboxylic acid methoxy-amide] | 1 |
| NC(=O)c1cn(-c2ccc3c(c2)CCC3)c2nc(Nc3cccc(N4CCCC4)c3)ncc2c1=O [Cpd 125, 8-indan-5-yl-5-oxo-2-(3-pyrrolidin-1-yl-phenylamino)-5,8-dihydro-pyrido[2,3-d]pyrimidine-6-carboxylic acid amide] | 5.7 |
| CCONC(=O)c1cn(C2CC2)c2nc(Nc3ccc(CCN4CCCC4)cc3)ncc2c1=O [Cpd 142, 8-cyclopropyl-5-oxo-2-[4-(2-pyrrolidin-1-yl-ethyl)-phenylamino]-5,8-dihydro-pyrido[2,3-d]pyrimidine-6-carboxylic acid ethoxy-amide] | 66 |
| CONC(=O)c1cn(C2CCCCC2)c2nc(Nc3ccc(CCN4CCOCC4)cc3)ncc2c1=O [Cpd 20, 8-cyclohexyl-2-[4-(2-morpholin-4-yl-ethyl)-phenylamino]-5-oxo-5,8-dihydro-pyrido[2,3-d]pyrimidine-6-carboxylic acid methoxy-amide] | 3 |
| CONC(=O)c1cn(-c2cccc(C(F)(F)F)c2)c2nc(Nc3ccc(C4CCN(C)CC4)cc3)ncc2c1=O | 0.8 |
| CONC(=O)c1cn(C2CCCCC2)c2nc(Nc3ccc(CCN4CCCC4=O)cc3)ncc2c1=O [Cpd 13, 8-cyclohexyl-5-oxo-2-{4-[2-(2-oxo-pyrrolidin-1-yl)-ethyl]-phenylamino}-5,8-dihydro-pyrido[2,3-d]pyrimidine-6-carboxylic acid methoxy-amide] | 1.6 |
| CONC(=O)c1cn(-c2ccc3c(c2)CCC3)c2nc(Nc3ccc(CCN4CC(O)C4)cc3)ncc2c1=O [Cpd 254, 2-{4-[2-(3-hydroxy-azetidin-1-yl)-ethyl]-phenylamino}-8-indan-5-yl-5-oxo-5,8-dihydro-pyrido[2,3-d]pyrimidine-6-carboxylic acid methoxy-amide] | 0.52 |
| CCONC(=O)c1cn(-c2ccc3c(c2)CCC3)c2nc(Nc3ccc(C[C@H]4COC(=O)N4)cc3)ncc2c1=O [Cpd 68, (S)-8-indan-5-yl-5-oxo-2-[4-(2-oxo-oxazolidin-4-ylmethyl)-phenylamino]-5,8-dihydro-pyrido[2,3-d]pyrimidine-6-carboxylic acid ethoxy-amide] | 0.7 |
| O=C(c1cn(C2CCCC2)c2nc(Nc3ccc(CCN4CCCC4)cc3)ncc2c1=O)N1CCOCC1 [Cpd 42, 8-cyclopentyl-6-(morpholine-4-carbonyl)-2-[4-(2-pyrrolidin-1-yl-ethyl)-phenylamino]-8H-pyrido[2,3-d]pyrimidin-5-one] | 57 |
| CNC(=O)c1cn(-c2ccc3c(c2)CCC3)c2nc(Nc3cccc(CCCN(C)C)c3)ncc2c1=O [Cpd 116, 2-[3-(3-dimethylamino-propyl)-phenylamino]-8-indan-5-yl-5-oxo-5,8-dihydro-pyrido[2,3-d]pyrimidine-6-carboxylic acid methylamide] | 5.3 |
| CNS(=O)(=O)CCc1ccc(Nc2ncc3c(=O)c(C(=O)NOC)cn(-c4ccc5c(c4)CCC5)c3n2)cc1 [Cpd 89, 8-indan-5-yl-2-[4-(2-methylsulfamoyl-ethyl)-phenylamino]-5-oxo-5,8-dihydro-pyrido[2,3-d]pyrimidine-6-carboxylic acid methoxy-amide] | 1.4 |
| CONC(=O)c1cn(-c2ccc3c(c2)CCC3)c2nc(Nc3ccc(C4CCN(S(N)(=O)=O)CC4)cc3)ncc2c1=O [Cpd 178, 8-indan-5-yl-5-oxo-2-[4-(1-sulfamoyl-piperidin-4-yl)-phenylamino]-5,8-dihydro-pyrido[2,3-d]pyrimidine-6-carboxylic acid methoxy-amide] | 2.6 |
| CONC(=O)c1cn(-c2ccc3c(c2)CCC3)c2nc(Nc3ccc(CCNCCS(C)(=O)=O)cc3)ncc2c1=O [Cpd 99, 8-indan-5-yl-2-{4-[2-(2-methanesulfonyl-ethylamino)-ethyl]-phenylamino}-5-oxo-5,8-dihydro-pyrido[2,3-d]pyrimidine-6-carboxylic acid methoxy-amide] | 0.9 |
| CCc1ccc(-n2cc(C(=O)NOC)c(=O)c3cnc(Nc4ccc(C5CCN(CC)CC5)cc4)nc32)cc1 [Cpd 157, 8-(4-ethyl-phenyl)-2-[4-(1-ethyl-piperidin-4-yl)-phenylamino]-5-oxo-5,8-dihydro-pyrido[2,3-d]pyrimidine-6-carboxylic acid methoxy-amide] | 0.4 |
| CONC(=O)c1cn(-c2ccc3c(c2)CCC3)c2nc(Nc3cccc(NC(=O)CN(C)C)c3)ncc2c1=O [Cpd 229, 2-[3-(2-dimethylamino-acetylamino)-phenylamino]-8-indan-5-yl-5-oxo-5,8-dihydro-pyrido[2,3-d]pyrimidine-6-carboxylic acid methoxy-amide] | 0.42 |
| CONC(=O)c1cn(-c2ccc3c(c2)CCC3)c2nc(Nc3ccc(CCN4CCN(C(=O)OC)CC4)cc3)ncc2c1=O [Cpd 150, 4-{2-[4-(8-indan-5-yl-6-methoxycarbamoyl-5-oxo-5,8-dihydro-pyrido[2,3-d]pyrimidin-2-ylamino)-phenyl]-ethyl}-piperazine-1-carboxylic acid methyl ester] | 0.75 |
| CCc1ccc(-n2cc(C(=O)NOC)c(=O)c3cnc(Nc4ccc(C5CCN(S(N)(=O)=O)CC5)cc4)nc32)cc1 [Cpd 179, 8-(4-ethyl-phenyl)-5-oxo-2-[4-(1-sulfamoyl-piperidin-4-yl)-phenylamino]-5,8-dihydro-pyrido[2,3-d]pyrimidine-6-carboxylic acid methoxy-amide] | 1.8 |
| C#Cc1ccc(-n2cc(C(N)=O)c(=O)c3cnc(Nc4ccc(CCN5CCN(C)CC5)cc4)nc32)cc1 [Cpd 30, 8-(4-ethynyl-phenyl)-2-{4-[2-(4-methyl-piperazin-1-yl)-ethyl]-phenylamino}-5-oxo-5,8-dihydro-pyrido[2,3-d]pyrimidine-6-carboxylic acid amide] | 14 |
| CONC(=O)c1cn(-c2ccc3c(c2)CCC3)c2nc(Nc3ccc(CCN4CCC[C@@H]4CO)cc3)ncc2c1=O [Cpd 101, (R)-2-{4-[2-(2-hydroxymethyl-pyrrolidin-1-yl)-ethyl]-phenylamino}-8-indan-5-yl-5-oxo-5,8-dihydro-pyrido[2,3-d]pyrimidine-6-carboxylic acid methoxy-amide] | 0.55 |
| CONC(=O)c1cn(-c2ccc3c(c2)CCC3)c2nc(Nc3cccc(-n4cncn4)c3)ncc2c1=O [Cpd 174, 8-indan-5-yl-5-oxo-2-(3-[1,2,4]triazol-1-yl-phenylamino)-5,8-dihydro-pyrido[2,3-d]pyrimidine-6-carboxylic acid methoxy-amide] | 2.1 |
| CONC(=O)c1cn(-c2ccc3c(c2)CCC3)c2nc(Nc3ccc(C4CCN(S(C)(=O)=O)CC4)cc3)ncc2c1=O [Cpd 76, 8-indan-5-yl-2-[4-(1-methanesulfonyl-piperidin-4-yl)-phenylamino]-5-oxo-5,8-dihydro-pyrido[2,3-d]pyrimidine-6-carboxylic acid methoxy-amide] | 0.83 |
| CCc1ccc(-n2cc(C(=O)NOC)c(=O)c3cnc(Nc4ccc(OC5CCN(CC)CC5)cc4)nc32)cc1 [Cpd 310, 8-(4-ethyl-phenyl)-2-[4-(1-ethyl-piperidin-4-yloxy)-phenylamino]-5-oxo-5,8-dihydro-pyrido[2,3-d]pyrimidine-6-carboxylic acid methoxy-amide] | 0.5 |
| CN1CCN(CCc2ccc(Nc3ncc4c(=O)c(C(N)=O)cn(-c5ccc(F)c(Cl)c5)c4n3)cc2)CC1 [Cpd 3, 8-(3-chloro-4-fluoro-phenyl)-2-{4-[2-(4-methyl-piperazin-1-yl)-ethyl]-phenylamino}-5-oxo-5,8-dihydro-pyrido[2,3-d]pyrimidine-6-carboxylic acid amide] | 28 |
| CN1CCN(CCc2ccc(Nc3ncc4c(=O)c(C(=O)N5CCCCC5)cn(-c5ccc6c(c5)CCC6)c4n3)cc2)CC1 [Cpd 64, 8-indan-5-yl-2-{4-[2-(4-methyl-piperazin-1-yl)-ethyl]-phenylamino}-6-(piperidine-1-carbonyl)-8H-pyrido[2,3-d]pyrimidin-5-one] | 180 |
| CONC(=O)c1cn(-c2ccc3c(c2)CCC3)c2nc(Nc3cccc(CCN4CCN(S(C)(=O)=O)CC4)c3)ncc2c1=O [Cpd 203, 8-indan-5-yl-2-{3-[2-(4-methanesulfonyl-piperazin-1-yl)-ethyl]-phenylamino}-5-oxo-5,8-dihydro-pyrido[2,3-d]pyrimidine-6-carboxylic acid methoxy-amide] | 1.4 |
| CONC(=O)c1cn(-c2ccc3c(c2)CCC3)c2nc(Nc3ccc(CCN4CCC4)cc3)ncc2c1=O [Cpd 262, 2-[4-(2-azetidin-1-yl-ethyl)-phenylamino]-8-indan-5-yl-5-oxo-5,8-dihydro-pyrido[2,3-d]pyrimidine-6-carboxylic acid methoxy-amide] | 0.59 |
| CONC(=O)c1cn(-c2ccc3c(c2)CCC3)c2nc(Nc3ccc(N4CCC[C@H]4CO)cc3)ncc2c1=O [Cpd 7, (S)-2-[4-(2-hydroxymethyl-pyrrolidin-1-yl)-phenylamino]-8-indan-5-yl-5-oxo-5,8-dihydro-pyrido[2,3-d]pyrimidine-6-carboxylic acid methoxy-amide] | 1.7 |
| CONC(=O)c1cn(-c2ccc3c(c2)CCC3)c2nc(Nc3ccc(C4CCN(CCC(=O)O)CC4)cc3)ncc2c1=O [Cpd 84, 3-{4-[4-(8-indan-5-yl-6-methoxycarbamoyl-5-oxo-5,8-dihydro-pyrido[2,3-d]pyrimidin-2-ylamino)-phenyl]-piperidin-1-yl}-propionic acid] | 2 |
